Numbered stars: 1 amine (or outer) side, 2 acyl side, 3 side chain; on linkers, the order of the positions; unused ones are H or OH. Square brackets hold non-standard residues; d marks the D form. Peptide text beside a SMILES is read from it. γGlu = O=C(O)[C@H](CCC(=O)[*:2])N[*:1]; Nspe = C[C@H](NCC(=O)O)c1ccccc1; Nlys = NCCCCNCC(=O)O
Assays:
Type in all cases: functional
[1] = tested on: PC-3; experiment: Cytotoxicity against human PC3 cells assessed as induction of cell death after 48 hrs by MTS assay; details: PC-3, 48 h, read-out: LC50 (the source's name)
[2] = tested on: LNCaP; experiment: Selectivity ratio of LC50 for human PC3 cells to LC50 for human LNCaP cells
[3] = tested on: LNCaP; experiment: Cytotoxicity against human LNCAP cells assessed as induction of cell death after 48 hrs by MTS assay; details: read-out: LC50 (the source's name)

| SMILES | CC50 [1] [µM] | RatioLC50 [2] | CC50 [3] [µM] |
| --- | --- | --- | --- |
| CC(C)C[C@H](NC(=O)[C@H](CCCCN)NC(=O)[C@H](CO)NC(=O)[C@H](CO)NC(=O)[C@H](Cc1cnc[nH]1)NC(=O)CC[C@H](NC(=O)CC[C@H](N)C(=O)O)C(=O)O)C(=O)N[C@@H](CCC(N)=O)C(=O)N(CCCCN)CC(=O)N(CC(=O)N(CC(=O)N(CCCCN)CC(=O)N(CC(=O)N(CC(=O)N(CCCCN)CC(=O)N(CC(=O)N(CC(=O)N(CCCCN)CC(=O)N(CC(=O)N(CC(N)=O)[C@@H](C)c1ccccc1)[C@@H](C)c1ccccc1)[C@@H](C)c1ccccc1)[C@@H](C)c1ccccc1)[C@@H](C)c1ccccc1)[C@@H](C)c1ccccc1)[C@@H](C)c1ccccc1)[C@@H](C)c1ccccc1 ({γGlu-γGlu}-HSSKLQ[Nlys][Nspe][Nspe][Nlys][Nspe][Nspe][Nlys][Nspe][Nspe][Nlys][Nspe][Nspe]-NH2) | 18 | 1.8 | 10 |
| C[C@@H](c1ccccc1)N(CC(N)=O)C(=O)CN(C(=O)CN(CCCCN)C(=O)CN(C(=O)CN(C(=O)CN(CCCCN)C(=O)CN(C(=O)CN(C(=O)CN(CCCCN)C(=O)CN(C(=O)CN(C(=O)CN(CCCCN)C(=O)CC[C@H](NC(=O)CC[C@H](N)C(=O)O)C(=O)O)[C@@H](C)c1ccccc1)[C@@H](C)c1ccccc1)[C@@H](C)c1ccccc1)[C@@H](C)c1ccccc1)[C@@H](C)c1ccccc1)[C@@H](C)c1ccccc1)[C@@H](C)c1ccccc1 ({γGlu-γGlu}-[Nlys][Nspe][Nspe][Nlys][Nspe][Nspe][Nlys][Nspe][Nspe][Nlys][Nspe][Nspe]-NH2) | 18 | 1.8 | 10 |

From ChEMBL document CHEMBL3596184, “Prostate tumor specific peptide-peptoid hybrid prodrugs” (2015)
